pIC50: −log10 of the molar value.
These compounds were tested against T1, FLT3-ITD (Homo sapiens, UniProt P36888) (assay: AlphaScreen kinase assay with recombinant enzyme, FLT3-ITD). Details: 8pt; read-out: FLT3_ITD 8pt: IC50.
T1 sequence (P36888 1-993): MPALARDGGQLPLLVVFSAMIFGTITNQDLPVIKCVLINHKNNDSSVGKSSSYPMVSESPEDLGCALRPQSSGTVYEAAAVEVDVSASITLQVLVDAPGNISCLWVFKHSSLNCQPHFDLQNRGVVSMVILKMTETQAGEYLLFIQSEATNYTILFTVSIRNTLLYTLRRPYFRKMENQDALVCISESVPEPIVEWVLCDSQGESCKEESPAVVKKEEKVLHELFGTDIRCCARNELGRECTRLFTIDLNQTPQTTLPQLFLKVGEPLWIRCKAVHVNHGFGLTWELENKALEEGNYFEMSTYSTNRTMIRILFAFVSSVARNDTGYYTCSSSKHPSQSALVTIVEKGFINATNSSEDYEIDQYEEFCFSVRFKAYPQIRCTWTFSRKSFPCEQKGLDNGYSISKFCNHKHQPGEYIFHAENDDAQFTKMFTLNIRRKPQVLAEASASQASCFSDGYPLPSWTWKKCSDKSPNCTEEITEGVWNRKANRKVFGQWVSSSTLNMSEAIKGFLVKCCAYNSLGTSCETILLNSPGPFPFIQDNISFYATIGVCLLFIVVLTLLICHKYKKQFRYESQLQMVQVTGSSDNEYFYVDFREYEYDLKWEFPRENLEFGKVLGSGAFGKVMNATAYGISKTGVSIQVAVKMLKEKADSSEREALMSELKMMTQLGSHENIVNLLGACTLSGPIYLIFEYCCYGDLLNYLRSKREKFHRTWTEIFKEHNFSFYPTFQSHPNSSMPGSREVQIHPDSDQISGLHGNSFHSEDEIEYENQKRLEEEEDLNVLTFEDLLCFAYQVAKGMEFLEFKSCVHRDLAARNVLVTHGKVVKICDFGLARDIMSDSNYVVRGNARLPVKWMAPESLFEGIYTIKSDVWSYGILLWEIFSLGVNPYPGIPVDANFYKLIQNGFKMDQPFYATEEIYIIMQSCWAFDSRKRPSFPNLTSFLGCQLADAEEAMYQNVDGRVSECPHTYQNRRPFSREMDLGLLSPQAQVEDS
Assay type: biochemical
Procedure, shortened: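 Tyrosine phosphorylation of biotin-poly(Glu4-Tyr) substrate by recombinant enzyme is detected with PY20 acceptor and streptavidin donor beads after room-temperature incubations of 20 and 60 min. IC50 values were derived at a final 10 μM (FLT3-D835Y, FLT3-ITD) or 100 μM (c-KIT).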

| SMILES | pIC50 |
| --- | --- |
| CC(=O)NC1CCN(C(=O)c2cccc(-c3cnc4[nH]c(-c5ccc(F)cc5)cc4c3)c2)CC1 [Compound P-0001, N-[1-[3-[2-(4-fluorophenyl)-1H-pyrrolo[2,3-b]pyridin-5-yl]benzoyl]-4-piperidyl]acetamide] | 4.30 to 5.00 |
| CON(C)C(=O)c1cccc(-c2cnc3[nH]c(-c4ccccc4)cc3c2)c1 [Compound P-0002, N-methoxy-N-methyl-3-(2-phenyl-1H-pyrrolo[2,3-b]pyridin-5-yl)benzamide] | 5.00 to 10.00 |
| NC1CN(C(=O)c2n[nH]c3ccc(-c4cnc5[nH]c(-c6ccccc6)cc5c4)cc23)C1 [Compound P-0029, (3-aminoazetidin-1-yl)-[5-(2-phenyl-1H-pyrrolo[2,3-b]pyridin-5-yl)-1H-indazol-3-yl]methanone] | 5.00 to 10.00 |
| NC1CCN(c2cccc3ccc(-c4cnc5[nH]c(-c6ccccc6)cc5c4)nc23)CC1 [Compound P-0034, 1-[2-(2-phenyl-1H-pyrrolo[2,3-b]pyridin-5-yl)-8-quinolyl]piperidin-4-amine] | 5.00 to 10.00 |
| Cc1ccc(-c2cnc3[nH]c(-c4ccccc4)cc3c2)cc1C(=O)N1CCC(N)CC1 [Compound P-0035, (4-amino-1-piperidyl)-[2-methyl-5-(2-phenyl-1H-pyrrolo[2,3-b]pyridin-5-yl)phenyl]methanone] | 5.00 to 10.00 |
| NC1CCN(C(=O)c2cc(-c3cnc4[nH]c(-c5ccccc5)cc4c3)ccn2)CC1 [Compound P-0038, (4-amino-1-piperidyl)-[4-(2-phenyl-1H-pyrrolo[2,3-b]pyridin-5-yl)-2-pyridyl]methanone] | 5.00 to 10.00 |
| NC1CCN(C(=O)c2c[nH]c3ccc(-c4cnc5[nH]c(-c6ccccc6)cc5c4)cc23)CC1 [Compound P-0042, (4-amino-1-piperidyl)-[5-(2-phenyl-1H-pyrrolo[2,3-b]pyridin-5-yl)-1H-indol-3-yl]methanone] | 5.00 to 10.00 |

More lines, now with the values ahead:

| pIC50 | SMILES |
| --- | --- |
| 5.00 to 10.00 | CNC(=O)C1CCN(C(=O)c2cccc(-c3cnc4[nH]c(-c5ccccc5)cc4c3)n2)CC1 [Compound P-0030, N-methyl-1-[6-(2-phenyl-1H-pyrrolo[2,3-b]pyridin-5-yl)pyridine-2-carbonyl]piperidine-4-carboxamide] |
| 5.00 to 10.00 | CCNC(=O)NC1CCN(C(=O)c2cccc(-c3cnc4[nH]c(-c5ccccc5)cc4c3)n2)CC1 [Compound P-0031, 1-ethyl-3-[1-[6-(2-phenyl-1H-pyrrolo[2,3-b]pyridin-5-yl)pyridine-2-carbonyl]-4-piperidyl]urea] |
| 5.00 to 10.00 | CS(=O)(=O)NC1CCN(C(=O)c2cccc(-c3cnc4[nH]c(-c5ccccc5)cc4c3)n2)CC1 [Compound P-0032, N-[1-[6-(2-phenyl-1H-pyrrolo[2,3-b]pyridin-5-yl)pyridine-2-carbonyl]-4-piperidyl]methanesulfonamide] |
| 5.00 to 10.00 | Cc1ccc(-c2cnc3[nH]c(-c4ccccc4)cc3c2)nc1C(=O)N1CCC(N)CC1 [Compound P-0033, (4-amino-1-piperidyl)-[3-methyl-6-(2-phenyl-1H-pyrrolo[2,3-b]pyridin-5-yl)-2-pyridyl]methanone] |
| 5.00 to 10.00 | N[C@H]1CCN(C(=O)c2cccc(-c3cnc4[nH]c(-c5ccccc5)cc4c3)c2)C1 [Compound P-0036, [(3S)-3-aminopyrrolidin-1-yl]-[3-(2-phenyl-1H-pyrrolo[2,3-b]pyridin-5-yl)phenyl]methanone] |
| 5.00 to 10.00 | O=C(NC1CCNCC1)c1n[nH]c2ccc(-c3cnc4[nH]c(-c5ccccc5)cc4c3)cc12 [Compound P-0039, 5-(2-phenyl-1H-pyrrolo[2,3-b]pyridin-5-yl)-N-(4-piperidyl)-1H-indazole-3-carboxamide] |
| 5.00 to 10.00 | CNC1CCN(C(=O)c2cccc(-c3cnc4[nH]c(-c5ccccc5)cc4c3)n2)CC1 [Compound P-0041, [4-(methylamino)-1-piperidyl]-[6-(2-phenyl-1H-pyrrolo[2,3-b]pyridin-5-yl)-2-pyridyl]methanone] |
| 5.00 to 10.00 | O=C(c1cccc(-c2cnc3[nH]c(-c4ccccc4)cc3c2)n1)C1CCNCC1 [Compound P-0043, [6-(2-phenyl-1H-pyrrolo[2,3-b]pyridin-5-yl)-2-pyridyl]-(4-piperidyl)methanone] |

Source: US9938273B2 (Plexxikon Inc., priority 2015, dated 2018)
